Data reported in patent US20260234144A1 (TAY THERAPEUTICS LIMITED, priority 2023, published 2026).

System: R223X stop codon in the mutated luciferase gene, ADXC8 luciferase reporter cell line
Test: cells
Assay type: cell-based
Conditions: ADXC8 cells, 24 hours; for EC (100% of 200 uM G418 response) / Emax: 24 h; for EC (100% of 200 uM G418 response): read-out: pC100%, negative logarithm of the concentration giving the same response as 200 μM G418; for Emax: read-out: Fold Over Control, maximum fold response relative to 200 μM G418; for Fold Over Control: maximum fold response relative to 200 μM G418; for pC100%: negative logarithm of the concentration giving the same response as 200 μM G418

| Structure (SMILES) | EC (100% of 200 uM G418 response) [µM] | Emax [%] | Fold Over Control | pC100% |
| --- | --- | --- | --- | --- |
| [2H]C([2H])([2H])Nc1nc(N[C@H]2CNC[C@@H]2O)nc2nc3c(c(C)c12)CCC3 [Example 563] | 0.1 to 1 |  |  |  |
| CNc1nc(N[C@@H]2CCCN(C)CC2)nc2nc(C)cc(C)c12 [Example 401] | 1 to 10 | 100 to 3000 |  |  |
| CNc1nc(NC2CCN(Cc3ccccc3O)CC2)nc2nc(C)cc(C)c12 [Example 579] | 0.1 to 1 | 100 to 3000 |  |  |
| Cc1cc(C)c2c(N)nc(NC3CC4CCC[C@H](C3)N4)nc2n1 (some centres unmarked) [Example 196] | 1 to 10 | 100 to 3000 |  |  |
| Cc1cc(C)c2c(N)nc(NC3CCN(Cc4ccc(CO)cc4)CC3)nc2n1 [Example 481] | 1 to 10 | 100 to 3000 |  |  |
| CN1CCC(Nc2nc(N)c3cc(OC4COC4)cnc3n2)CC1 [Example 28, N^2-(1-methylpiperidin-4-yl)-6-(oxetan-3-yloxy)pyrido[2,3-d]pyrimidine-2,4-diamine] | > 100 | 0 to 100 |  |  |
| Cc1c2c(nc3nc(N[C@H]4CNC[C@@H]4O)nc(N)c13)CCC2 [Example 582] | 0.01 to 0.1 | 100 to 3000 |  |  |
| [2H]C([2H])([2H])Nc1nc(NC2CCN(C)CC2)nc2nc(C)cc(C)c12 [Example 328] | 1 to 10 | 100 to 3000 |  |  |
| COc1ccccc1-c1ccc2c(N)nc(NC3CCN(C)CC3)nc2n1 [Example 50] | 1 to 10 |  |  |  |
| Cc1cc(C)c2c(N)nc(NC3CCN(Cc4ccc(C(N)=O)cc4)CC3)nc2n1 [Example 476] | 10 to 100 | 100 to 3000 |  |  |
| Cc1cc(C)c2c(N)nc(NC3CC4(CNC4)C3)nc2n1 [Example 202] | 10 to 100 | 100 to 3000 |  |  |
| CNCc1ccc(-c2ccc3c(N)nc(NC4CCN(C)CC4)nc3n2)cc1 [Example 56] | 10 to 100 | 100 to 3000 |  |  |
| Cc1cc(C)c2c(N)nc(N[C@H]3CN[C@@H](C)C3)nc2n1 [Example 350] | 1 to 10 | 100 to 3000 |  |  |
| CN1CCC(Nc2nc(N)c3cc4c(nc3n2)CCC4)CC1 [Example 275] | 1 to 10 |  |  |  |
| Cc1cc(C)c2c(N)nc(NC3CCN(Cc4cccnc4)CC3)nc2n1 [Example 504] | 1 to 10 | 100 to 3000 |  |  |
| CNc1nc(N[C@H]2CN(C)C[C@H]2OC)nc2nc(C)cc(C)c12 [Example 369] | 1 to 10 | 100 to 3000 |  |  |
| CN1CCC(Nc2nc(N)c3cc(CO)cnc3n2)CC1 [Example 123, {4-amino-2-[(1-methylpiperidin-4-yl)amino]pyrido[2,3-d]pyrimidin-6-yl}methanol] | > 100 | 0 to 100 |  |  |
| Cc1nc2nc(NC3CCN(Cc4ccccc4)CC3)nc(N)c2c2c1CCC2 [Example 306] | 0.1 to 1 | 100 to 3000 |  |  |
| COCc1ccccc1CN1CCC(Nc2nc(N)c3c(C)cc(C)nc3n2)CC1 [Example 455] | 1 to 10 | 100 to 3000 |  |  |
| Cc1cc(C)c2c(N)nc(N[C@H]3CCCCNC3)nc2n1 [Example 312] | 10 to 100 | 100 to 3000 |  |  |

| Structure (SMILES) | EC (100% of 200 uM G418 response) [µM] | Emax [%] | Fold Over Control | pC100% |
| --- | --- | --- | --- | --- |
| CNc1nc(NC2CC3CCC2N3C)nc2nc(C)cc(C)c12 (centres unmarked) [Example 592] | 1 to 10 | 100 to 3000 |  |  |
| CNc1nc(NC2C3CCC2CN(C)C3)nc2nc(C)cc(C)c12 (single isomer, unassigned) [Example 433] | 1 to 10 | 100 to 3000 |  |  |
| Cc1cc(C)c2c(N)nc(NC3CCN(Cc4c(Cl)cccc4Cl)CC3)nc2n1 [Example 470] | 1 to 10 | 100 to 3000 |  |  |
| CNc1nc(N[C@H]2CN[C@H](CF)C2)nc2nc(C)cc(C)c12 [Example 413] | 0.1 to 1 |  |  |  |
| CNc1nc(NC2CNCC2C#N)nc2nc(C)cc(C)c12 (single isomer, unassigned) [Example 452] |  |  | ## (Fold over Ctrl > 1 ≤ 30) | + (pC100% > 4.0 ≤ 5.0) |
| CNc1nc(NC2CCN(C)C2(C)C)nc2nc(C)cc(C)c12 (centres unmarked) [Example 409] | 1 to 10 | 100 to 3000 |  |  |
| Cc1ccc(CN2CCC(Nc3nc(N)c4c(C)cc(C)nc4n3)CC2)cc1 [Example 543] | 1 to 10 | 100 to 3000 |  |  |
| Cc1cc(C)c2c(N)nc(NC3CCCN(C(=O)OC(C)(C)C)CC3)nc2n1 (centres unmarked) [Example 131, tert-butyl 4-((4-amino-5,7-dimethylpyrido[2,3-d]pyrimidin-2-yl)amino)azepane-1-carboxylate] | > 100 | 0 to 100 |  |  |
| CN1CCC(Nc2nc(N)c3ccc(-c4cnn(C)c4)nc3n2)CC1 [Example 26, 7-(1-methyl-1H-pyrazol-4-yl)-N^2-(1-methylpiperidin-4-yl)pyrido[2,3-d]pyrimidine-2,4-diamine] | > 100 | 0 to 100 |  |  |
| CN1CCC(Nc2nc(N)c3ccc(-c4ncco4)nc3n2)CC1 [Example 119, N^2-(1-methylpiperidin-4-yl)-7-(oxazol-2-yl)pyrido[2,3-d]pyrimidine-2,4-diamine] | 10 to 100 | 100 to 3000 |  |  |
| CN1CCC(Nc2nc(N)c3c4c(cnc3n2)CCC4)CC1 [Example 274] | 1 to 10 |  |  |  |
| Cc1cc(C)c2c(N)nc(NC3CC(C)(C)N(C)C(C)(C)C3)nc2n1 [Example 171] | 10 to 100 | 100 to 3000 |  |  |
| Cc1cc(C)c2c(N)nc(NC34CNCC3C4)nc2n1 (single isomer, unassigned) [Example 259, N^2-(3-azabicyclo[3.1.0]hexan-1-yl)-5,7-dimethylpyrido[2,3-d]pyrimidine-2,4-diamine] |  | 100 to 3000 |  | ++ (pC100% > 5.0 ≤ 6.0) |
| CNc1nc(N[C@@H]2CN(C)C[C@@H]2O)nc2nc3c(c(C)c12)CCC3 [Example 658] | 1 to 10 | 100 to 3000 |  |  |
| Cc1cc(C)c2c(N)nc(NCCCN3CC(F)C3)nc2n1 [Example 186] | 10 to 100 | 100 to 3000 |  |  |
| CNc1nc(N[C@H]2CN(C3CC3)C[C@@H]2O)nc2nc(C)cc(C)c12 [Example 612] | 10 to 100 | 100 to 3000 |  |  |
| CCN1C[C@@H](F)[C@@H](Nc2nc(NC)c3c(C)cc(C)nc3n2)C1 [Example 628] | 1 to 10 |  |  |  |
| Cc1cc(C)c2c(N)nc(NCC(O)CN3CCCCC3)nc2n1 (centres unmarked) [Example 642] | 10 to 100 | 100 to 3000 |  |  |
| CNc1nc(N[C@H]2CNCC23CC3)nc2nc(C)cc(C)c12 [Example 403] | 1 to 10 |  |  |  |
| Cc1cc(C)c2c(N)nc(NCCN3CC4(CCOC4)C3)nc2n1 [Example 183] | > 31.6 | 0 to 100 |  |  |

| Structure (SMILES) | EC (100% of 200 uM G418 response) [µM] | Emax [%] | Fold Over Control | pC100% |
| --- | --- | --- | --- | --- |
| CNc1nc(NC2CC[C@H]2N(C)C)nc2nc(C)cc(C)c12 (some centres unmarked) [Example 412] | 1 to 10 |  |  |  |
| Cc1cc(C)c2c(N)nc(N[C@H]3CN[C@H](C)C3)nc2n1 [Example 209] | 1 to 10 | 100 to 3000 |  |  |
| CNc1nc(NC2(CO)CCNC2)nc2nc(C)cc(C)c12 (single isomer, unassigned) [Example 440] |  |  | # (Fold over Ctrl ≥ 0 ≤ 1) | * (pC100 ≤ 4.5) |
| CNc1nc(N[C@H]2CN[C@H](C(F)F)C2)nc2nc(C)cc(C)c12 [Example 407] | 1 to 10 |  |  |  |
| CNc1nc(NC2CNCC2C(F)F)nc2nc(C)cc(C)c12 (single isomer, unassigned) [Example 430] |  |  |  | ++ (pC100% > 5.0 ≤ 6.0) |
| COc1cccc(CN2CCC(Nc3nc(N)c4c(C)cc(C)nc4n3)CC2)c1 [Example 494] | 1 to 10 | 100 to 3000 |  |  |
| Cc1cc(C)c2c(N)nc(NC3CCN(Cc4ccc(C#N)cc4C(F)F)CC3)nc2n1 [Example 508, 4-((4-((4-amino-5,7-dimethylpyrido[2,3-d]pyrimidin-2-yl)amino)piperidin-1-yl)methyl)-3-(difluoromethyl)benzonitrile] | 1 to 10 | 100 to 3000 |  |  |
| CNc1nc(NC2CN(C)CC23CC3)nc2nc(C)cc(C)c12 (centres unmarked) [Example 408] | 1 to 10 |  |  |  |
| CNc1nc(N[C@@]2(C)CCNC2)nc2nc(C)cc(C)c12 [Example 637] | > 31.6 | 0 to 100 |  |  |
| CNC(=O)c1ccccc1-c1ccc2c(N)nc(NC3CCN(C)CC3)nc2n1 [Example 107] | > 100 | 0 to 100 |  |  |
| Cc1cc(C)c2c(N)nc(NC3CCN(Cc4ccccc4F)CC3)nc2n1 [Example 465] | 1 to 10 | 100 to 3000 |  |  |
| CNc1nc(N[C@H]2CN(C)C[C@H]2F)nc2nc(C)c(Br)c(C)c12 [Example 613] | 1 to 10 |  |  |  |
| Cc1cc(C)c2c(N)nc(NC3CCN(Cc4ccc(C#N)cc4Br)CC3)nc2n1 [Example 561] | 1 to 10 | 100 to 3000 |  |  |
| CC(=O)c1ccc2c(N)nc(NC3CCN(C)CC3)nc2n1 [Example 289] | 1 to 10 | 100 to 3000 |  |  |
| Cc1cc(C)c2c(NCc3ccncc3)nc(NC3CCN(C)CC3)nc2n1 [Example 319] | > 31.6 | 0 to 100 |  |  |
| COc1ccc(CN2CCC(Nc3nc(N)c4c(C)cc(C)nc4n3)CC2)cc1 [Example 478] | 0.1 to 1 | 100 to 3000 |  |  |
| CC(C)c1ccc2c(N)nc(NC3CCN(C)CC3)nc2n1 [Example 239, 7-isopropyl-N^2-(1-methylpiperidin-4-yl)pyrido[2,3-d]pyrimidine-2,4-diamine] | 1 to 10 | 100 to 3000 |  |  |
| CNc1nc(N[C@@H]2C[C@@H]3CC[C@H]2N3C)nc2nc(C)cc(C)c12 [Example 368] | 1 to 10 | 100 to 3000 |  |  |
| CNc1nc(NC2CNCC2C#N)nc2nc(C)cc(C)c12 (single isomer, unassigned) [Example 450] |  |  | ## (Fold over Ctrl > 1 ≤ 30) | ++ (pC100% > 5.0 ≤ 6.0) |
| CNc1nc(N[C@H]2CNC[C@@H]2O)nc2nc(C)cc(C)c12 [Example 325] | 1 to 10 |  |  |  |
